Results from publication PMC5743070 (The Journal of Biological Chemistry, 2017).
Where “and” joins values, the source holds several entries; their conditions need not be identical. Equal values may be shown once. Read-outs that look alike come from different tables or passages of the source.

Tests used:
[1] = target: T1, TTD (UHRF1_121–286) (Homo sapiens, UniProt Q96T88); test: ITC of BPC binding to TTD
T1 construct: UHRF1_121–286 corresponding to the TTD; made in house
T1 sequence (Q96T88 121-286): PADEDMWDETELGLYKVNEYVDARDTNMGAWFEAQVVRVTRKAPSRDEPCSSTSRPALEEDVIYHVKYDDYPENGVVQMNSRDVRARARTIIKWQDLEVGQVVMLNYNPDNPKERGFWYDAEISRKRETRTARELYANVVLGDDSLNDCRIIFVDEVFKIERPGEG
Method: For ITC measurements of TTD–PHD (UHRF1_126–366) interaction with H3K9me3, samples were dialyzed into a buffer containing 10 mM HEPES (pH 7.5), 150 mM NaCl, 1 mM TCEP, and 30 μM ZnCl2. […] A preliminary peptide injection of 0.06 μl was followed by subsequent 2-μl injections into the sample cell containing 167 μl of 50 μM TTD–PHD. Where indicated, 1.5 mM BPC or 1.5 mM PBR peptide was included in the injection syringe and sample cell. The reported KD and n values are based on the average from two measurements. For ITC measurements of TTD (UHRF1_121–286) interaction with BPC, the protein was buffered in 20 mM Tris (pH 7.4), 50 mM NaCl, and 5% DMSO. BPC was brought to a concentration of 2.5 mM and injected into the sample cell containing 40 μM protein. The data were acquired on a Nano ITC from TA Instruments at 25 °C and fitted with an independent-binding site model using NanoAnalyze software (v3.7.0). […]
Binding of BPC in the groove of TTD.
labeled (at the N-terminus) H3K9me3(1-25) peptide, (B) ITC, and (C) DSF. […]

[2] = tested on: PHD; test: NMR titration of PHD with BPC; format: binding
Method: NMR samples were buffered in 20 mM sodium phosphate (pH 7.5), 150 mM NaCl, 5 mM DTT, 5 mM β-mercaptoethanol, 2 mM TCEP, and 10 μM ZnSO4. The protein concentration was between 200 and 300 μM for all samples. The data were collected at 25 °C on Bruker spectrometers equipped with cryoprobes and operating at 500, 600, or 800 MHz. The assignment of backbone TTD–PHD resonances was accomplished using the ABACUS method ([29]) for which standard backbone and ^15N-edited NOESY spectra were collected using ^15N/^13C/^2H- or ^15N/^13C-labeled protein. All 3D experiments were acquired using non-uniform sampling and processed using the software MDDGUI ([30]) or qMDD ([31]). ^15N-Labeled TTD–PHD was used to acquire ^15N T1 and T2 relaxation and ^1H-^15N heteronuclear NOE measurements ([32]) collected using standard Bruker pulse schemes in an interleaved manner. For T1 measurements, the variable delay was set to 0.1, 0.4, 0.8, 1.5, 2.0, 2.5, 3.5, and 5 s. For T2 measurements, the variable delay was set to 16, 32, 48, 64, 80, 96, 128, and 144 ms. The D1 was 3 s for all experiments. Reported values were the average from two measurements. All spectra were processed using NMRPipe ([33]) and analyzed with SPARKY ([34]). […]
trated by the perturbation of I211, I212 and E281 resonances in HSQC spectra of the TTD in a competition assay. […]

[3] = ITC, 2.5 mM BPC into 40 μM TTD, pH 7.4, 5% DMSO, 25 °C

N=C(N)N1CCC(Cc2ccccc2)CC1 [BPC, 4-benzylpiperidine-1-carboximidamide]
Kd ([1]; ITC, 2.5 mM BPC into 40 μM TTD, 20 mM Tris pH 7.4, 50 mM NaCl, 5% DMSO, 25 °C, independent-binding site model, read-out: KD): 46 µM
H (enthalpy of binding, ITC) [1, 3]: -2.6 kcal/mol
S (entropy of binding, ITC) [1, 3]: 11.0 cal/mol∙K
calculated ligand efficiency (binding energy per heavy atom) ([1]; calculated from KD for TTD): 0.38
Kd ([1]; isolated TTD, estimated using ITC and DSF, read-out: estimated KD): 50 µM and ~50 µM
effect on PHD resonances ([2]; 3 mM BPC, 5% DMSO (12:1)): unaffected
interaction with PHD ([2]; separate NMR titration with PHD): no interaction
